Experiments:
[1] = test system: PI3K-δ specific basophil activation; assay: Anti-fCER1 BAT (delta), basophil activation in human whole blood; type: cell-based; conditions: Table 5
R848 induced cytokines = assay: R848 induced cytokine production in PBMCs; type: cell-based, human
Experimental: (§1) These experiments were conducted using PBMCs.

[2] = test system: Murine B-cell proliferation; assay: Murine B-cell proliferation; type: cell-based; conditions: Mus musculus
LPS induced cytokines = assay: LPS induced cytokine production in PBMCs; type: cell-based, human
Experimental: as §1

NZBWF1/J mice = assay: Murine NZB/W F1 lupus model; type: in vivo, mouse; conditions: vs vehicle; for Glomerulonephritis score reduction: kidney histopathology; for Plasma anti-dsDNA IgG levels: days 49, 98, 140 (age 30, 37, 43 wk)
From the text: Female NZBWF1/J mice (n=60) that were 8 weeks old on arrival and weighed approximately 35-51 grams (mean 42 g) at enrollment (mouse age approx. 23 weeks) were obtained from The Jackson Laboratory, Bar Harbor, Me. (stock number 100008). Animals were identified by a distinct number of ink marks at the base of the tail delineating animal number. After enrollment, all cages were labeled with protocol number, group number, and animal numbers.
Mice were terminated at age 43 weeks (day 140).
All dose solutions were prepared to deliver in 10 ml/kg (0.3 ml/30 g mouse).
Body weights were measured and recorded prior to study initiation for randomization, on the first day of dosing prior to dosing, and weekly throughout the study. Body weights were also recorded at scheduled termination points and as needed if test subjects appeared to decrease in weight by visual inspection. The animals were observed daily for significant clinical signs, morbidity and mortality.
Urine from each animal was tested weekly (beginning at mouse age 23 weeks) for proteinuria using Clinitech Multistick test strips (Bayer).
At necropsy, animals were anesthetized with isoflorane and bled via cardiac puncture for serum (for clinical chemistry analysis) and plasma (for Anti-dsDNA ELISA and PK). Terminal urine was collected and assessed. Spleens and kidneys (paired) were collected, weighed, and placed in 10% NBF. Serum obtained at necropsy was sent to Antech Diagnostics for analysis. Terminal plasma samples were split with half being used for Anti-dsDNA ELISA and the other half being shipped to the sponsor.
Anti-dsDNA IgG analysis was performed on days 0, 49, 98, and 140 (mouse age 23, 30, 37, and 43 weeks). Anti-dsDNA IgG levels were determined using an Anti-dsDNA IgG ELISA Kit (Alpha Diagnostic, kit #5120, lot #90903K4) following manufacturer's instructions.
Blood samples for clinical chemistry evaluation were collected at termination via cardiac puncture from Isoflurane anesthetized animals into serum separator microtainer tubes. Serum was sent to Antech Diagnostics for analysis.
The following parameters were measured: Albumin (ALB), Albumin: Globulin ratio (A/G), Alkaline phosphatase (ALK), Alanine aminotransferase (ALT), Aspartate aminotransferase (AST), Calcium (CA), Magnesium (Mg), Phosphorous (P), Globulin (GLOB), Electrolytes (Sodium (Na), Potassium (K), Chloride (Cl)), Gamma glutamyltransferase (GGT), Total bilirubin (TBILI), Amylase (AMY), Lipase (LIP), Osmolality, Triglycerides (TRIG), Total cholesterol (CHOL), Urea nitrogen (BUN), Creatinine (CREAT), Glucose (GLU), Total protein (TP), and Creatinine kinase (CPK).
Histopathologic evaluation was performed on kidneys. Kidneys from all surviving animals were examined microscopically by a board certified veterinary pathologist and observations were entered into a computer-assisted data retrieval system. Kidney sections were stained with Masson's Trichrome, or Hematoxylin and Eosin. To maintain blinding of the analysis, slides were labeled with the animal number with no reference to treatment group.
Kidneys were scored according to the following system (developed by Chan O, Madaio M P, Shlomchik M J. The roles of B cells in MRL/lpr murine lupus. Annals New York Academy of Sciences, 1997; 815:75-82), modified to suit the lesion severity.
• 0=Normal. • 1=Focal or multifocal, minimal to mild, early proliferative. • 2=Multifocal mild to moderate or mild diffuse proliferative. • 3=Diffuse moderate proliferative with or without multifocal severe areas. • 4=Marked diffuse proliferative, with crescents/sclerosis, multifocal protein casts present. • 5=Severe diffuse proliferative, with crescents/sclerosis, diffuse protein casts present. […]

B cell proliferation = B cell proliferation EC50 (Table 3); type: cell-based; conditions: in vitro
PI3K-δ = PI3K-δ (Homo sapiens, UniProt O00329); assay: One exemplary assay, PI3K-δ activity; type: biochemical; conditions: overall, several assays
PI3K-δ, sequence (O00329 whole entry, species assumed): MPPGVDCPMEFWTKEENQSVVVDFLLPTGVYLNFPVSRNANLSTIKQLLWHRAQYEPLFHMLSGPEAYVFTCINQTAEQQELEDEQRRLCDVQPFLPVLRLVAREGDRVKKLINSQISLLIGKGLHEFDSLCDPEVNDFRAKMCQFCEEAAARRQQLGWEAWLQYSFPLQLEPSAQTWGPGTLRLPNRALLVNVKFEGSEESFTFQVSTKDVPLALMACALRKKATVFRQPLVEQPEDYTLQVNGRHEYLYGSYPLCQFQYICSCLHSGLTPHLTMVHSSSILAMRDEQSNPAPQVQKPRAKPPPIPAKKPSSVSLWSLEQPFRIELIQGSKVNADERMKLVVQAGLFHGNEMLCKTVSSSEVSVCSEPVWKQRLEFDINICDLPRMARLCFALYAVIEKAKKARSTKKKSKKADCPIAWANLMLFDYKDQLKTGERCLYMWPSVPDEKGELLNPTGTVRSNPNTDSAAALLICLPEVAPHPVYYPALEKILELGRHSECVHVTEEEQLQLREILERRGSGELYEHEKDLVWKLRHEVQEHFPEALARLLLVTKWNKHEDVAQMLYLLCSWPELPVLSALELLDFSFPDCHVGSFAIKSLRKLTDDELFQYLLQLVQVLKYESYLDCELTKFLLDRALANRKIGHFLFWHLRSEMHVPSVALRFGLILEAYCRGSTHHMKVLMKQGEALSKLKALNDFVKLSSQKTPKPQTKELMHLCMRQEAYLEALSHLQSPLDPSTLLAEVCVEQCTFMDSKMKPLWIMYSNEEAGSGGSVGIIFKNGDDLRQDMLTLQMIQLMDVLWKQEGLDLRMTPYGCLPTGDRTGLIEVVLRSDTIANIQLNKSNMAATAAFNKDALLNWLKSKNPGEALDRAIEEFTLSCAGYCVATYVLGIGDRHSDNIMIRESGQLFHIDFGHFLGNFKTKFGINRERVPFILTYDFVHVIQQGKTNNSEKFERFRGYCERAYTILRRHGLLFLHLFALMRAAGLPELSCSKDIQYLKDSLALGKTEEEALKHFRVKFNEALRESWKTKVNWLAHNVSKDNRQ
PI3K-δ, sequence (P27986 whole entry partner, species assumed): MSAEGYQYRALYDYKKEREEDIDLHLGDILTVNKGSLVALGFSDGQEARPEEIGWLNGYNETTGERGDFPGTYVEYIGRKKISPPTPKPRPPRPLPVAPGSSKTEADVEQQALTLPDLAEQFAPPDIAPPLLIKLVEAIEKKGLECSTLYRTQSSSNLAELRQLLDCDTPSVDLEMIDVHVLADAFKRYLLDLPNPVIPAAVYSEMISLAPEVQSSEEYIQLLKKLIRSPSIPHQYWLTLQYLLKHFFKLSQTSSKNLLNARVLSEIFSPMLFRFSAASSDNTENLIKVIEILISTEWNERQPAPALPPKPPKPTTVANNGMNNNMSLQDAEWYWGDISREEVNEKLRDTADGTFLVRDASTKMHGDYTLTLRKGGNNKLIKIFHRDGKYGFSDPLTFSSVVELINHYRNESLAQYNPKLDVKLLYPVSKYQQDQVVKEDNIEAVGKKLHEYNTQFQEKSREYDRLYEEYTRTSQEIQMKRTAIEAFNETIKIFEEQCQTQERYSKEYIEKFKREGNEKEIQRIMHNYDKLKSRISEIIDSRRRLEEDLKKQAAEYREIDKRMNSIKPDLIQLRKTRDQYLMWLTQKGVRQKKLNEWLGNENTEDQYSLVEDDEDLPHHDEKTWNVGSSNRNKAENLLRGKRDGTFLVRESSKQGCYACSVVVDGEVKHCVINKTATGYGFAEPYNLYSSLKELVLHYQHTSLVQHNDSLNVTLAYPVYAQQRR

[3] = serum at termination, Compound 292 (1, 5, 10 mg/kg), Dex 2 mg/kg

EC50 [1]: 78 nM
PI3K-δ inhibited at lower dose compared to PI3K-γ, PI3K-β or PI3K-α (PI3K-δ): at least 10 fold
Structure (SMILES): C[C@H](Nc1ncnc2[nH]cnc12)c1cc2cccc(Cl)c2c(=O)n1-c1ccccc1 [Compound 292]
R848 induced IFN-α (R848 induced cytokines): did not detectably affect
R848 induced IL-1 (R848 induced cytokines): slightly inhibited
R848 induced IL-6 (R848 induced cytokines): did not detectably affect
R848 induced IL-8 (R848 induced cytokines): did not detectably affect
R848 induced TNF-α (R848 induced cytokines): did not detectably affect
EC50 [2]: 0.5 nM
LPS induced IL-1 production (LPS induced cytokines): enhanced
LPS induced IL-6 production (LPS induced cytokines): enhanced
LPS induced IL-8 production (LPS induced cytokines): did not detectably affect
LPS induced TNF-α production (LPS induced cytokines): enhanced
Glomerulonephritis score reduction (NZBWF1/J mice; 1 mg/kg PO QD): 68%
Urine protein levels (NZBWF1/J mice; 1 mg/kg PO QD, p<0.05 at mouse age 43 wk): significantly reduced
Perivascular inflammation score reduction (NZBWF1/J mice; 1 mg/kg PO QD): 79%
Protein cast severity reduction (NZBWF1/J mice; 1 mg/kg PO QD): 100%
Spleen weight reduction (NZBWF1/J mice; 1 mg/kg PO QD): 39%
Summed histopathology scores reduction (NZBWF1/J mice; 1 mg/kg PO QD): 67%
Plasma anti-dsDNA IgG levels (NZBWF1/J mice; 5 mg/kg PO QD): significantly reduced
Glomerulonephritis score reduction (NZBWF1/J mice; 5 mg/kg PO QD): 89%
Urine protein levels (NZBWF1/J mice; 5 mg/kg PO QD, p<0.05 at mouse age 43 wk): significantly reduced
Interstitial nephritis score reduction (NZBWF1/J mice; 5 mg/kg PO QD): 54%
Perivascular inflammation score reduction (NZBWF1/J mice; 5 mg/kg PO QD): 90%
Protein cast severity reduction (NZBWF1/J mice; 5 mg/kg PO QD): 100%
Spleen weight reduction (NZBWF1/J mice; 5 mg/kg PO QD): 54%
Summed histopathology scores reduction (NZBWF1/J mice; 5 mg/kg PO QD): 81%
Plasma anti-dsDNA IgG levels (NZBWF1/J mice; 10 mg/kg PO QD): significantly reduced
Glomerulonephritis score reduction (NZBWF1/J mice; 10 mg/kg PO QD): 100%
Urine protein levels (NZBWF1/J mice; 10 mg/kg PO QD, p<0.05 at mouse age 42-43 wk): significantly reduced
Interstitial nephritis score reduction (NZBWF1/J mice; 10 mg/kg PO QD): 67%
Perivascular inflammation score reduction (NZBWF1/J mice; 10 mg/kg PO QD): 100%
Protein cast severity reduction (NZBWF1/J mice; 10 mg/kg PO QD): 100%
Spleen weight reduction (NZBWF1/J mice; 10 mg/kg PO QD): 55%
Summed histopathology scores reduction (NZBWF1/J mice; 10 mg/kg PO QD): 91%
Body weight loss (percent change from baseline) (NZBWF1/J mice; 1, 5 or 10 mg/kg PO QD 20 wk, over time): did not differ significantly
Kidney weight (NZBWF1/J mice; 1, 5 or 10 mg/kg PO QD): did not differ significantly
% of animals with proteinuria (urine protein levels >300 mg/dl) (NZBWF1/J mice; all doses (1, 5, or 10 mg/kg), animal age 43 weeks): significantly reduced
Sodium (Na) (NZBWF1/J mice; serum at termination, Compound 292 1 mg/kg): significantly increased
Amylase (AMY) (NZBWF1/J mice; serum at termination, Compound 292 5 mg/kg, Dex 2 mg/kg): significantly reduced
Magnesium (Mg) (NZBWF1/J mice; serum at termination, Compound 292 10 mg/kg, Dex 2 mg/kg): significantly increased
Aspartate aminotransferase (AST) (NZBWF1/J mice; serum at termination, Compound 292 (1, 5, 10 mg/kg)): significantly reduced
Albumin (ALB) (NZBWF1/J mice; [3]): significantly increased
Blood urea nitrogen (BUN) (NZBWF1/J mice; [3]): significantly reduced
Calcium (CA) (NZBWF1/J mice; [3]): significantly increased
Creatine kinase (CPK) (NZBWF1/J mice; [3]): significantly reduced
Globulin (GLOB) (NZBWF1/J mice; [3]): significantly reduced
Triglycerides (TRIG) (NZBWF1/J mice; [3]): significantly reduced
EC50 (B cell proliferation): < 100 nM

From patent publication US9527847B2, “Treatment of lupus, fibrotic conditions, and inflammatory myopathies and other disorders using PI3 kinase inhibitors” (INFINITY PHARMACEUTICALS, INC., priority 2012, dated 2016)
